Experimental findings from patent US11168073B2, “3,3-difluoroallylamines or salts thereof and pharmaceutical compositions comprising the same” (YUHAN CORPORATION, priority 2018, dated 2021) are described below.

The IC50 is the concentration needed to halve the response being measured.

Type in all cases: biochemical
Assay [1] concerns the target T1, recombinant human VAP-1 (Homo sapiens, UniProt Q16853).
T1 construct: purchased R&D systems
T1 sequence (Q16853 1-763): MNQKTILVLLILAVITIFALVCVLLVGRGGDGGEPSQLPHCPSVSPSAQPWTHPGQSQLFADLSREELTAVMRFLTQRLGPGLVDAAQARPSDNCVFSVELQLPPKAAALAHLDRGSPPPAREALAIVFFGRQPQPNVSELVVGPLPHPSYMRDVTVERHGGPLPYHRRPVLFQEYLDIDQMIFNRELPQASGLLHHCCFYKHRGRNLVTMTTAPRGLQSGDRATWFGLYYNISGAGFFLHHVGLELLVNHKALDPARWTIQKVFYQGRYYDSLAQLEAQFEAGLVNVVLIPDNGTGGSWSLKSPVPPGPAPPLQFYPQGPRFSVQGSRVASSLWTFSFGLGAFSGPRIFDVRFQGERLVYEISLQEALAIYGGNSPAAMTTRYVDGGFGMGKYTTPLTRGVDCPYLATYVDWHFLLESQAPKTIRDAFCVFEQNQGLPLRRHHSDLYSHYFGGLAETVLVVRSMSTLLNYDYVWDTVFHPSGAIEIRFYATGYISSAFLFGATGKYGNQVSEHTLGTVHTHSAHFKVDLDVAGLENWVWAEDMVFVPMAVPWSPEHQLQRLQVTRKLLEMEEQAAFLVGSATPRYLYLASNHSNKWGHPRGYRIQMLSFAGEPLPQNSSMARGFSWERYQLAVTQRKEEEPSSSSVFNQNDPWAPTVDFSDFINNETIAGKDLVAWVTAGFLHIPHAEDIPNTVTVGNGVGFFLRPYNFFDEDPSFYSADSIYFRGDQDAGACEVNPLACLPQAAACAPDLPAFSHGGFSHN
Put plainly: Activity evaluation on recombinant human VAP-1 (Amplex Red/HRP-coupled hydrogen peroxide assay, benzylamine substrate). The following applies: read-out: Inhibitory Activity (IC50, nM) human VAP-1. A digest of the protocol:
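Hydrogen peroxide from benzylamine (1 mM) oxidation by human recombinant VAP-1 detected via HRP-coupled Amplex Red (200 uM) fluorescence, kinetic over 1–2 h. Enzyme and compound preincubated 30 min at 37 °C, pH 7.4 phosphate; 8-point dose response, signal-rate decrease versus DMSO control fitted to four-parameter logistic for IC50.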

Assay [2] addresses T2, recombinant human MAO-A (monoamine oxidase-A) (Homo sapiens, UniProt P21397).
T2 construct: purchased Sigma-Aldrich
T2 sequence (P21397 1-527): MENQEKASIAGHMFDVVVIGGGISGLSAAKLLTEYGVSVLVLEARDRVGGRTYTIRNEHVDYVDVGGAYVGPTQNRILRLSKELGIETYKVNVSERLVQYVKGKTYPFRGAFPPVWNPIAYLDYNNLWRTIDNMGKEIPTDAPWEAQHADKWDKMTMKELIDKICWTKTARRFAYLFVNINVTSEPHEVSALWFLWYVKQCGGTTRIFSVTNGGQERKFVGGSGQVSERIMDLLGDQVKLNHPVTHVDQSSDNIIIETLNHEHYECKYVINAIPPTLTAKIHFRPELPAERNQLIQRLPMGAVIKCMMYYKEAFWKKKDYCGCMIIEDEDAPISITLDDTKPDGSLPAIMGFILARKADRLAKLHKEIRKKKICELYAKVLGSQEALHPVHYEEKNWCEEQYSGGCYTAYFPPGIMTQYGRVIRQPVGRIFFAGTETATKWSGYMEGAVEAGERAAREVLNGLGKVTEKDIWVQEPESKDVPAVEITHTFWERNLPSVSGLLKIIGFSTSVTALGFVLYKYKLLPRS
Kind of assay: Activity evaluation on recombinant human MAO-A (Amplex Red/HRP-coupled assay, 0.5 mM tyramine substrate). As to conditions: read-out: Inhibitory Activity (IC50, nM) MAO-A. A digest of the protocol:
(§1)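 Using an HRP-coupled Amplex Red readout (544/590 nm, kinetic over 1–2 h), IC50 values were fitted by 4-parameter logistic model to percent decrease in signal rate against DMSO control. Compounds (1:3 dilutions, 8 points, <1% DMSO) sat 30 min at 37 °C with enzyme in pH 7.4 phosphate buffer before substrate, 200 uM Amplex Red and HRP were added.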

For assay [3], the target named is T3, recombinant human MAO-B (monoamine oxidase-B) (Homo sapiens, UniProt P27338).
T3 construct: purchased Sigma-Aldrich
T3 sequence (P27338 1-520): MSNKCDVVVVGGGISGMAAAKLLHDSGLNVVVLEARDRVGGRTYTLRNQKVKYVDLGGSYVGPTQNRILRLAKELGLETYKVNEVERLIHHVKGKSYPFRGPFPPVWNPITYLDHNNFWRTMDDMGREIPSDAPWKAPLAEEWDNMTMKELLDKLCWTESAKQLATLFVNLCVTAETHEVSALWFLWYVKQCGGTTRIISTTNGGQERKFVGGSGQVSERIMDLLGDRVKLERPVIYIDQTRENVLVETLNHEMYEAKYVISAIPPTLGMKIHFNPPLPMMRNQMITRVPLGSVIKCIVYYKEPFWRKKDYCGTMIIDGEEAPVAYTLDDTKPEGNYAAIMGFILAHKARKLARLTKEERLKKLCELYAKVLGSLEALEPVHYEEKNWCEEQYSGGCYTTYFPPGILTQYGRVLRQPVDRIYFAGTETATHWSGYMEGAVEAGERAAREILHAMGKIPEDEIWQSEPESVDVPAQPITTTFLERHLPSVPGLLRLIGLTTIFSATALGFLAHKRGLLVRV
Kind of assay: Activity evaluation on recombinant human MAO-B (Amplex Red/HRP-coupled assay, 1 mM benzylamine substrate). The following applies: read-out: Inhibitory Activity (IC50, nM) MAO-B. A digest of the protocol:
as §1

For assay [4], the target named is T4, recombinant human DAO (diamine oxidase) (Homo sapiens, UniProt P19801).
T4 construct: purchased R&D systems
T4 sequence (P19801 20-751): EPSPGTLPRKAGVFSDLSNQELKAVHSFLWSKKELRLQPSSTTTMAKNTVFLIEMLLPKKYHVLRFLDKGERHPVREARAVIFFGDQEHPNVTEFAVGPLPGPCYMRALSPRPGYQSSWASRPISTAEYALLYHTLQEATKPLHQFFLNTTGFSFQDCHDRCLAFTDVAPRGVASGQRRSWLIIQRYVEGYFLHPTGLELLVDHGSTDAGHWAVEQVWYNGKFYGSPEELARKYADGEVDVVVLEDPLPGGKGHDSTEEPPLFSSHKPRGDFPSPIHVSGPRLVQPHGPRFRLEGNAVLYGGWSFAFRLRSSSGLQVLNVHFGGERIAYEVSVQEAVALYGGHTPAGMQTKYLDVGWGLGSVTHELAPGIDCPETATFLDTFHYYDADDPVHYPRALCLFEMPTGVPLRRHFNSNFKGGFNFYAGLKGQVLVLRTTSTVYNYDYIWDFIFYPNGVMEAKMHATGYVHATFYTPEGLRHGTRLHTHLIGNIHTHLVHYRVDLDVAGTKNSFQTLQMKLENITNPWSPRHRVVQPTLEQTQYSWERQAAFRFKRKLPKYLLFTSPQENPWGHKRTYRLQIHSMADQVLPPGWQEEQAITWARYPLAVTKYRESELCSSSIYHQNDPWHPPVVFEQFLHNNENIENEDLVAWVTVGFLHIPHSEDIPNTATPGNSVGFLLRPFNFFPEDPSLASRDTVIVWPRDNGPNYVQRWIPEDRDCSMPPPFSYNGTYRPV
Put plainly: Activity evaluation on recombinant human DAO (Amplex Red/HRP-coupled assay, 1 mM putrescine substrate). As to conditions: read-out: Inhibitory Activity (IC50, nM) DAO. A digest of the protocol: as §1

[5] abbreviates: recombinant human VAP-1, 30 min preincubation at 37° C., 1 mM benzylamine.
[6] abbreviates: recombinant human VAP-1, benzylamine substrate.

Counter-ions that a name gives are not always drawn. Like-named read-outs stand apart in the source and are kept apart here. Some results are limits rather than exact numbers.

Take `NCC(Cn1ncn(Cc2ccc(-c3cccc(-c4cc[nH]n4)c3)s2)c1=O)=C(F)F` [Example 110, 2-[2-(aminomethyl)-3,3-difluoro-allyl]-4-[[5-[3-(1H-pyrazol-3-yl)phenyl]-2-thienyl]methyl]-1,2,4-triazol-3-one Trifluoroacetate]: the IC50 in assay [1] (setting [5]) was 1.3 nM; in assay [2] (0.5 mM tyramine) it was over 10000 nM; in assay [3] (1 mM benzylamine) it was 8700 nM; in assay [4] (1 mM putrescine), over 100000 nM.

As to `NCC(Cn1ncn(-c2ccc(-c3ccc4c(c3)OCO4)c(F)c2)c1=O)=C(F)F` [Example 28, 2-[2-(aminomethyl)-3,3-difluoro-allyl]-4-[4-(1,3-benzodioxol-5-yl)-3-fluoro-phenyl]-1,2,4-triazol-3-one Trifluoroacetate], the IC50 in assay [1] (setting [5]) was 1.2 nM; in assay [2] (0.5 mM tyramine) it was over 100000 nM; in assay [3] (1 mM benzylamine), 85 nM; in assay [4] (1 mM putrescine), 1600 nM.

As to `CS(=O)(=O)c1cccc(-c2ccc(Cn3cnn(CC(CN)=C(F)F)c3=O)s2)c1` [Example 102, 2-[2-(aminomethyl)-3,3-difluoro-allyl]-4-[[5-(3-methylsulfonylphenyl)-2-thienyl]methyl]-1,2,4-triazol-3-one Trifluoroacetate], the IC50 in assay [1] (setting [5]) was 0.4 nM; in assay [2] (0.5 mM tyramine) it was over 100000 nM; in assay [3] (1 mM benzylamine), 5400 nM; in assay [4] (1 mM putrescine), over 10000 nM.

On to `Cc1cc(-n2cnn(CC(CN)=C(F)F)c2=O)cnc1-c1ccc2c(c1)CCC(=O)N2C` [Example 81, 6-[5-[1-[2-(aminomethyl)-3,3-difluoro-allyl]-5-oxo-1,2,4-triazol-4-yl]-3-methyl-2-pyridyl]-1-methyl-3,4-dihydroquinolin-2-one Trifluoroacetate], for which the IC50 in assay [1] (setting [5]) is 0.4 nM; in assay [2] (0.5 mM tyramine), over 100000 nM; in assay [3] (1 mM benzylamine), 3500 nM; in assay [4] (1 mM putrescine), 27 nM.

On to `Cc1cc(-c2ccnc(-n3cnn(CC(CN)=C(F)F)c3=O)c2)cc2c1NC(=O)CC2` [Example 59, 6-[2-[1-[2-(aminomethyl)-3,3-difluoro-allyl]-5-oxo-1,2,4-triazol-4-yl]-4-pyridyl]-8-methyl-3,4-dihydro-1H-quinolin-2-one Trifluoroacetate], for which the IC50 in assay [1] (setting [5]) was 0.5 nM; in assay [2] (0.5 mM tyramine) it was over 100000 nM; in assay [3] (1 mM benzylamine) it was over 100000 nM; in assay [4] (1 mM putrescine), 84 nM.

In the case of `CCn1cc(-c2ccc(Cn3cnn(CC(CN)=C(F)F)c3=O)cc2)cn1` [Example 264, 2-[2-(aminomethyl)-3,3-difluoro-allyl]-4-[[4-(1-ethylpyrazol-4-yl)phenyl]methyl]-1,2,4-triazol-3-one Trifluoroacetate], the IC50 is 1.3 nM in assay [1] (setting [6]), over 100000 nM in assay [2] (0.5 mM tyramine substrate), over 100000 nM in assay [3] (1 mM benzylamine substrate) and over 100000 nM in assay [4] (1 mM putrescine substrate).

Regarding `CN(C)c1ccc(-c2cccc(-n3cnn(CC(CN)=C(F)F)c3=O)n2)cn1` [Example 49, 2-[2-(aminomethyl)-3,3-difluoro-allyl]-4-[6-[6-(dimethylamino)-3-pyridyl]-2-pyridyl]-1,2,4-triazol-3-one Trifluoroacetate], the IC50 in assay [1] (setting [5]) is 1.6 nM; in assay [2] (0.5 mM tyramine), over 100000 nM; in assay [3] (1 mM benzylamine), over 100000 nM; in assay [4] (1 mM putrescine), 490 nM.

Regarding `Cc1cc(-c2ccc(N3CCOCC3)cc2)cnc1-n1cnn(CC(CN)=C(F)F)c1=O` [Example 237, 2-[2-(aminomethyl)-3,3-difluoro-allyl]-4-[3-methyl-5-(4-morpholinophenyl)-2-pyridyl]-1,2,4-triazol-3-one Trifluoroacetate], the IC50 in assay [1] (setting [6]) was 0.42 nM; in assay [2] (0.5 mM tyramine substrate), over 100000 nM; in assay [3] (1 mM benzylamine substrate), 84000 nM; in assay [4] (1 mM putrescine substrate), 6100 nM.

As for `CCn1cc(-c2ccc3cc(Cn4cnn(CC(CN)=C(F)F)c4=O)sc3c2)cn1` [Example 204, 2-[2-(aminomethyl)-3,3-difluoro-allyl]-4-[[6-(1-ethylpyrazol-4-yl)benzothiophen-2-yl]methyl]-1,2,4-triazol-3-one Trifluoroacetate], the IC50 in assay [1] (setting [6]) was 0.5 nM; in assay [2] (0.5 mM tyramine substrate) it was over 100000 nM; in assay [3] (1 mM benzylamine substrate) it was 89900 nM; in assay [4] (1 mM putrescine substrate), 41200 nM.

With `Cc1cc(-c2cccc(Cn3cnn(CC(CN)=C(F)F)c3=O)c2)cc2c1NC(=O)CC2` [Example 275, 6-[3-[[1-[2-(aminomethyl)-3,3-difluoro-allyl]-5-oxo-1,2,4-triazol-4-yl]methyl]phenyl]-8-methyl-3,4-dihydro-1H-quinolin-2-one Trifluoroacetate], the 50% inhibitory concentration (IC50) in assay [1] (setting [6]) is 0.9 nM; in assay [2] (0.5 mM tyramine substrate), over 100000 nM; in assay [3] (1 mM benzylamine substrate), 25400 nM; in assay [4] (1 mM putrescine substrate), 5160 nM.

Take `Cc1cc(C#Cc2ccc(N(C)C)nc2)cnc1-n1cnn(CC(CN)=C(F)F)c1=O` [Example 241, 2-[2-(aminomethyl)-3,3-difluoro-allyl]-4-[5-[2-[6-(dimethylamino)-3-pyridyl]ethynyl]-3-methyl-2-pyridyl]-1,2,4-triazol-3-one Trifluoroacetate]: the IC50 was 1.3 nM in assay [1] (setting [6]), over 100000 nM in assay [2] (0.5 mM tyramine substrate), 6300 nM in assay [3] (1 mM benzylamine substrate) and 25000 nM in assay [4] (1 mM putrescine substrate).
